Patent US20230295234A1, “ANTIMICROBIAL PEPTIDOMIMETICS” (SPEXIS AG, priority 2020, published 2023)
Read-outs that look alike come from different tables or passages of the source. Bridge positions count the residues as written; N and C are the ends. Square brackets hold non-standard residues; d marks the D form. Peptide text beside a SMILES is read from it. * marks the point of attachment. Val(Nα-amidino) = CC(C)[C@H](NC(=N)N)C(=O)*; Pro(4R-NH2) = N[C@H]1CN[C@H](C(=O)O)C1; Gly(N-2-aminoethyl) = NCCNCC(=O)O; Hyp = O=C(O)[C@@H]1C[C@@H](O)CN1; Pen = CC(C)(S)[C@H](N)C(=O)O; dDab = NCC[C@@H](N)C(=O)O; Dab = NCC[C@H](N)C(=O)O; Nlys = NCCCCNCC(=O)O

How the values were obtained:
[1] = test system: Escherichia coli ATCC 25922; conditions: ATCC 25922
Procedure, shortened: (§1)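 Broth microdilution; cation-adjusted MHII; inoculum ~5×10^5 CFU/mL from 0.5 McFarland saline suspension; peptide two-fold serial dilutions; polysorbate 80 0.002% final; peptide stock 1 mg/mL in water.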

[2] = test system: Escherichia coli MCR-1 Af 45
Procedure, shortened: as §1

[3] = test system: Klebsiella pneumoniae SSI3010; conditions: SSI3010
Procedure, shortened: as §1

[4] = test system: human red blood cells (hRBC); assay: Hemolysis of human red blood cells; assay type: cell-based; conditions: red cells of human, 1 h
Procedure, shortened: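 PBS-washed human red blood cells (20% v/v) were incubated with peptide at 200 μg/mL for 1 h at 37 °C with shaking. Supernatant OD was read at 540 nm after 8-fold dilution. Hemolysis is expressed as percent of the water control.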

[5] = Mueller-Hinton broth II, 18-20 hours at 35° C.

SMILES | Escherichia coli ATCC 25922 MIC [1] | Escherichia coli MCR-1 Af 45 MIC ([2]; MCR-1 Af 45) | Klebsiella pneumoniae SSI3010 MIC [3] | Hemolysis at 0.2 g/L [4] | Escherichia coli MCR-1 Af 45 MIC [2, 5]
CC[C@H](C)[C@H](NC(=O)[C@@H]1C[C@@H](N)CN1C(=O)[C@@H](NC(=N)N)C(C)C)C(=O)N[C@H](C(=O)N[C@@H](Cc1ccc(O)cc1)C(=O)N[C@@H]1C(=O)N[C@@H](CC(N)=O)C(=O)N[C@@H](CCCNC(=N)N)C(=O)N[C@@H](CCN)C(=O)N[C@@H]([C@@H](C)O)C(=O)N[C@H](CCN)C(=O)N[C@@H](CCCCN)C(=O)N[C@H](C(=O)N[C@@H](CCN)C(=O)N[C@@H](CCCNC(=N)N)C(=O)N[C@@H](Cc2ccc(O)cc2)C(=O)O)CSSC1(C)C)[C@@H](C)O [Example 190] ({Val(Nα-amidino)}-[Pro(4R-NH2)]ITY[Pen]NR[Dab]T[dDab]KC[Dab]RY-OH; disulfide 5-12) | 0.0625 µg/mL |  | 0.125 µg/mL | 0% | 0.0625 µg/mL
CC[C@H](C)[C@H](NC(=O)[C@@H](NC(=O)[C@@H]1CCCN1C(=O)[C@@H](NC(=O)[C@@H]1CCCN1C(=O)[C@H](CCCCN)NC(=O)[C@@H](N)CCCCN)C(C)C)[C@@H](C)CC)C(=O)N[C@@H](Cc1ccc(O)cc1)C(=O)N[C@H]1CSSC[C@@H](C(=O)N[C@@H](CCN)C(=O)N(CCCN)CC(=O)N[C@@H](Cc2ccc(O)cc2)C(=O)O)NC(=O)[C@H](CCCCN)NC(=O)[C@@H](CCN)NC(=O)[C@H]([C@@H](C)O)NC(=O)[C@H](CCN)NC(=O)[C@H](CCCNC(=N)N)NC(=O)[C@H](CC(N)=O)NC1=O [Example 108] (HELM PEPTIDE1{K.K.P.V.P.I.I.Y.C.N.R.[Dab].T.[NCC[C@@H](N[*:1])C(=O)[*:2]].K.C.[Dab].[NCCCN(CC(=O)[*:2])[*:1]].Y}$PEPTIDE1,PEPTIDE1,9:R3-16:R3$$$V2.0) | 0.125 µg/mL | ≤0.03125 µg/mL | 0.0625 µg/mL | 0% | 
CC[C@H](C)[C@H](NC(=O)[C@@H](NC(=O)[C@@H]1C[C@@H](N)CN1C(=O)[C@@H](NC(=O)[C@@H]1CCCN1)C(C)C)[C@@H](C)CC)C(=O)N[C@@H](Cc1ccc(O)cc1)C(=O)N[C@@H]1C(=O)N[C@@H](CC(N)=O)C(=O)N[C@@H](CCCNC(=N)N)C(=O)N[C@@H](CCN)C(=O)N[C@@H]([C@@H](C)O)C(=O)N[C@H](CCN)C(=O)N[C@@H](CCCCN)C(=O)N[C@H](C(=O)N[C@@H](CCC(N)=O)C(=O)N[C@@H](CCCNC(=N)N)C(=O)N[C@@H](CC2CCCCC2)C(=O)O)CSSC1(C)C [Example 17, Pro-Val-Pro((4R)NH2)-Ile-Ile-Tyr-Pen-Asn-Arg-Dab-Thr-^DDab-Lys-Cys-Gln-Arg-Cha] (HELM PEPTIDE1{P.V.[N[C@@H]1C[C@@H](C(=O)[*:2])N([*:1])C1].I.I.Y.[Pen].N.R.[Dab].T.[NCC[C@@H](N[*:1])C(=O)[*:2]].K.C.Q.R.[Cha]}$PEPTIDE1,PEPTIDE1,7:R3-14:R3$$$V2.0) | 0.125 µg/mL | 0.125 µg/mL | 0.25 µg/mL | 0% | 
CC[C@H](C)[C@H](NC(=O)[C@@H]1C[C@@H](O)CN1C(=O)[C@@H](N)C(C)C)C(=O)N[C@H](C(=O)N[C@@H](Cc1ccc(O)cc1)C(=O)N[C@@H]1C(=O)N[C@@H](CC(N)=O)C(=O)N[C@@H](CCCNC(=N)N)C(=O)N[C@@H](CCN)C(=O)N[C@@H]([C@@H](C)O)C(=O)N[C@H](CCN)C(=O)N[C@@H](CCCNC(N)=O)C(=O)N[C@H](C(=O)N[C@@H](CCN)C(=O)N[C@@H](CCCNC(=N)N)C(=O)N[C@@H](Cc2ccc(O)cc2)C(=O)O)CSSC1(C)C)[C@@H](C)O [Example 180] (HELM PEPTIDE1{V.[Hyp].I.T.Y.[Pen].N.R.[Dab].T.[NCC[C@@H](N[*:1])C(=O)[*:2]].[Cit].C.[Dab].R.Y}$PEPTIDE1,PEPTIDE1,6:R3-13:R3$$$V2.0) | 0.25 µg/mL |  | 0.5 µg/mL | 1% | 0.25 µg/mL
CC[C@H](C)[C@H](NC(=O)[C@@H](NC(=O)[C@@H]1C[C@@H](O)CN1C(=O)[C@@H](NC(=O)[C@@H]1C[C@@H](O)CN1C(=O)[C@H](CCCCN)NC(=O)[C@@H](N)CCCCN)C(C)C)[C@@H](C)CC)C(=O)N[C@@H](Cc1ccc(O)cc1)C(=O)N[C@H]1CSSC[C@@H](C(=O)N[C@@H](CCN)C(=O)N[C@@H](CCCNC(=N)N)C(=O)N[C@@H](Cc2ccc(O)cc2)C(=O)O)NC(=O)[C@H](CCCCN)NC(=O)[C@@H](CCN)NC(=O)[C@H]([C@@H](C)O)NC(=O)[C@H](CCN)NC(=O)[C@H](CCCNC(=N)N)NC(=O)[C@H](CC(N)=O)NC1=O [Example 117, Lys-Lys-Hyp-Val-Hyp-Ile-Ile-Tyr-Cys-Asn-Arg-Dab-Thr-^DDab-Lys-Cys-Dab-Arg-Tyr] (HELM PEPTIDE1{K.K.[Hyp].V.[Hyp].I.I.Y.C.N.R.[Dab].T.[NCC[C@@H](N[*:1])C(=O)[*:2]].K.C.[Dab].R.Y}$PEPTIDE1,PEPTIDE1,9:R3-16:R3$$$V2.0) | 0.03125 µg/mL | 0.0625 µg/mL | 0.125 µg/mL | 0% | 
CC[C@H](C)[C@H](NC(=O)[C@@H]1CCCN1C(=O)[C@@H](N)C(C)C)C(=O)N[C@H](C(=O)N[C@@H](Cc1ccc(O)cc1)C(=O)N[C@H]1CSSC[C@@H](C(=O)N[C@@H](CCN)C(=O)N[C@@H](CCCNC(=N)N)C(=O)N[C@@H](Cc2ccc(O)cc2)C(=O)O)NC(=O)[C@H](CCCCN)NC(=O)[C@@H](CCN)NC(=O)[C@H]([C@@H](C)O)NC(=O)[C@H](CCN)NC(=O)[C@H](CCCNC(=N)N)NC(=O)[C@H](CC(N)=O)NC1=O)[C@@H](C)O [Example 144] (HELM PEPTIDE1{V.P.I.T.Y.C.N.R.[Dab].T.[NCC[C@@H](N[*:1])C(=O)[*:2]].K.C.[Dab].R.Y}$PEPTIDE1,PEPTIDE1,6:R3-13:R3$$$V2.0) | 0.0625 µg/mL |  | 0.125 µg/mL | 0% | 0.25 µg/mL

Second part, led by results:

Escherichia coli ATCC 25922 MIC [1] | Escherichia coli MCR-1 Af 45 MIC ([2]; MCR-1 Af 45) | Klebsiella pneumoniae SSI3010 MIC [3] | SMILES | Hemolysis at 0.2 g/L [4] | Escherichia coli MCR-1 Af 45 MIC [2, 5]
0.125 µg/mL | 0.125 µg/mL | 0.25 µg/mL | CC[C@H](C)[C@H](NC(=O)[C@@H]1C[C@@H](O)CN1C(=O)[C@@H](NC(=O)[C@@H]1C[C@@H](O)CN1C(=O)CNCCCN)C(C)C)C(=O)N[C@H](C(=O)N[C@@H](Cc1ccc(O)cc1)C(=O)N[C@@H]1C(=O)N[C@@H](CC(N)=O)C(=O)N[C@@H](CCCNC(=N)N)C(=O)N[C@@H](CCN)C(=O)N[C@@H]([C@@H](C)O)C(=O)N[C@H](CCN)C(=O)N[C@@H](CCCCN)C(=O)N[C@H](C(=O)N[C@@H](CCN)C(=O)N[C@@H](CCCNC(=N)N)C(=O)N[C@@H](Cc2ccc(O)cc2)C(=O)O)CSSC1(C)C)[C@@H](C)O [Example 42, Norn-Hyp-Val-Hyp-Ile-Thr-Tyr-Pen-Asn-Arg-Dab-Thr-^DDab-Lys-Cys-Dab-Arg-Tyr] (HELM PEPTIDE1{[NCCCNCC(=O)[*:2]].[Hyp].V.[Hyp].I.T.Y.[Pen].N.R.[Dab].T.[NCC[C@@H](N[*:1])C(=O)[*:2]].K.C.[Dab].R.Y}$PEPTIDE1,PEPTIDE1,8:R3-15:R3$$$V2.0) | 0% | 
0.0625 µg/mL | 0.0625 µg/mL | 0.125 µg/mL | CC[C@H](C)[C@H](NC(=O)[C@@H]1C[C@@H](O)CN1C(=O)[C@@H](NC(=O)CN(CCN)C(=O)CNCCCCN)C(C)C)C(=O)N[C@H](C(=O)N[C@@H](Cc1ccc(O)cc1)C(=O)N[C@@H]1C(=O)N[C@@H](CC(N)=O)C(=O)N[C@@H](CCCNC(=N)N)C(=O)N[C@@H](CCN)C(=O)N[C@@H]([C@@H](C)O)C(=O)N[C@H](CCN)C(=O)N[C@@H](CCCCN)C(=O)N[C@H](C(=O)N[C@@H](CCN)C(=O)N[C@@H](CCCNC(=N)N)C(=O)N[C@@H](Cc2ccc(O)cc2)C(=O)O)CSSC1(C)C)[C@@H](C)O [Example 56, Nlys-Ndab-Val-Hyp-Ile-Thr-Tyr-Pen-Asn-Arg-Dab-Thr-^DDab-Lys-Cys-Dab-Arg-Tyr] (H-[Nlys][Gly(N-2-aminoethyl)]V[Hyp]ITY[Pen]NR[Dab]T[dDab]KC[Dab]RY-OH; disulfide 8-15) | 0% | 
0.125 µg/mL | ≤0.03125 µg/mL | 0.125 µg/mL | CC[C@H](C)[C@H](NC(=O)[C@@H](NC(=O)[C@@H]1CCCN1C(=O)[C@@H](NC(=O)CN(C)C(=O)CNC(=O)[C@@H](N)CCCCN)C(C)C)[C@@H](C)CC)C(=O)N[C@@H](Cc1ccc(O)cc1)C(=O)N[C@@H]1C(=O)N[C@@H](CC(N)=O)C(=O)N[C@@H](CCCNC(=N)N)C(=O)N[C@@H](CCN)C(=O)N[C@@H]([C@@H](C)O)C(=O)N[C@H](CCN)C(=O)N[C@@H](CCCCN)C(=O)N[C@H](C(=O)N[C@@H](CCN)C(=O)N[C@@H](CCCNC(=N)N)C(=O)N[C@@H](Cc2ccc(O)cc2)C(=O)O)CSSC1(C)C [Example 94, Lys-Gly-Sar-Val-Pro-Ile-Ile-Tyr-Pen-Asn-Arg-Dab-Thr-^DDab-Lys-Cys-Dab-Arg-Tyr] (HELM PEPTIDE1{K.G.[Sar].V.P.I.I.Y.[Pen].N.R.[Dab].T.[NCC[C@@H](N[*:1])C(=O)[*:2]].K.C.[Dab].R.Y}$PEPTIDE1,PEPTIDE1,9:R3-16:R3$$$V2.0) | 0% | 
